pIC50: −log10 of the molar value. Like-named read-outs stand apart in the source and are kept apart here.
Assays:
Assay type in all cases: cell-based
[1] = test system: K-562; experiment: NCI in vitro cytotoxicity (SRB, 48 h), Leukemia panel; details: Homo sapiens, K562; K-562, Leukemia; 48 h exposure
[2] = test system: SR; experiment: as above; details: Homo sapiens
Description: (§1) The imidazothiazole-chalcone hybrids 7a, 7e, 7f, 8f and 19e have been tested against sixty human tumour cell lines derived from nine cancer types (leukemia, non-small cell lung cancer, colon cancer, CNS cancer, melanoma, ovarian cancer, renal cancer, prostate cancer and breast cancer) as per NCI protocol. For each compound, dose response curves for individual cell lines have been measured at a minimum of five concentrations at 10 fold dilutions. A protocol of 48 h continuous drug exposure has been used, and a sulforhodamine B (SRB) protein assay was used to estimate cell viability or growth. The concentration for 50% cell growth inhibition (GI50), total cell growth inhibition (TGI, 0% growth) and 50% cell death (LC50, […]) compared with the control has been calculated (Table-1).

[3] = test system: HL-60(TB); experiment: as above; details: Homo sapiens, 48 h exposure
Description: as §1

[4] = test system: Colon cancer cell lines; experiment: NCI in vitro cytotoxicity, whole panel; details: Homo sapiens; for CC50: read-out: Log10 LC50 (converted)
[5] = test system: KM12; experiment: NCI in vitro cytotoxicity (SRB, 48 h), Colon panel; details: Homo sapiens, 48 h exposure
[6] = test system: Ovarian cancer cell lines; experiment: NCI in vitro cytotoxicity, whole panel; details: Homo sapiens; for CC50: read-out: Log10 LC50 (converted)
[7] = test system: A498; experiment: NCI in vitro cytotoxicity (SRB, 48 h), Renal panel; details: Homo sapiens, 48 h exposure
[8] = test system: UACC-25; experiment: NCI in vitro cytotoxicity (SRB, 48 h), Melanoma panel; details: Homo sapiens; UACC-25, Melanoma; 48 h exposure
[9] = test system: SF-539; experiment: NCI in vitro cytotoxicity (SRB, 48 h), CNS panel; details: Homo sapiens; SF-539, CNS; 48 h exposure
[10] = test system: HCT-15; experiment: NCI in vitro cytotoxicity (SRB, 48 h), Colon panel; details: Homo sapiens; HCT-15, Colon; 48 h exposure
[11] = test system: MALME-3M; experiment: NCI in vitro cytotoxicity (SRB, 48 h), Melanoma panel; details: Homo sapiens, 48 h exposure
[12] = test system: EKVX; experiment: NCI in vitro cytotoxicity (SRB, 48 h), Non-small cell lung panel; details: Homo sapiens, 48 h exposure
[13] = test system: OVCAR-4; experiment: NCI in vitro cytotoxicity (SRB, 48 h), Ovarian panel; details: Homo sapiens; OVCAR-4, Ovarian; 48 h exposure
[14] = test system: OVCAR-8; experiment: as above; details: Homo sapiens; OVCAR-8, Ovarian; 48 h exposure
[15] = test system: SF-295; experiment: NCI in vitro cytotoxicity (SRB, 48 h), CNS panel; details: Homo sapiens; SF-295, CNS; 48 h exposure
[16] = test system: Prostate cancer cell lines; experiment: NCI in vitro cytotoxicity, whole panel; details: Homo sapiens; for LC50: read-out: Log10 LC50 (converted)
[17] = test system: HOP-92; experiment: NCI in vitro cytotoxicity (SRB, 48 h), Non-small cell lung panel; details: Homo sapiens
[18] = test system: DU-145; experiment: NCI in vitro cytotoxicity (SRB, 48 h), Prostate panel; details: Homo sapiens; DU-145, Prostate; 48 h exposure
[19] = test system: MCF7; experiment: NCI in vitro cytotoxicity (SRB, 48 h), Breast panel; details: Homo sapiens; for pIC50: MCF7, MCF-7, Table 4, read-out: Comparative efficacy; for GI50: MCF7, Breast, 48 h exposure
Description: as §1

[20] = test system: MDA-MB-231/ATCC; experiment: as above; details: Homo sapiens; for GI50: Breast, 48 h exposure; for pIC50: Table 4, read-out: Comparative efficacy
Description: as §1

[21] = test system: SW-620; experiment: NCI in vitro cytotoxicity (SRB, 48 h), Colon panel; details: Homo sapiens; SW-620, Colon; 48 h exposure
[22] = test system: COLO 205; experiment: NCI in vitro cytotoxicity (SRB, 48 h), Colon panel; details: Homo sapiens; COLO 205, Colon; 48 h exposure
[23] = test system: ACHN; experiment: NCI in vitro cytotoxicity (SRB, 48 h), Renal panel; details: Homo sapiens, 48 h exposure
[24] = test system: CNS cancer cell lines; experiment: NCI in vitro cytotoxicity, whole panel; details: Homo sapiens; for CC50: read-out: Log10 LC50 (converted)
[25] = test system: BT-549; experiment: NCI in vitro cytotoxicity (SRB, 48 h), Breast panel; details: Homo sapiens; BT-549, Breast; 48 h exposure
[26] = test system: SK-MEL-2; experiment: NCI in vitro cytotoxicity (SRB, 48 h), Melanoma panel; details: Homo sapiens; SK-MEL-2, Melanoma; 48 h exposure
[27] = test system: Leukemia cell lines; experiment: NCI in vitro cytotoxicity, whole panel; details: Homo sapiens; for CC50: read-out: Log10 LC50 (converted)
[28] = test system: Non-small-cell lung cancer cell lines; experiment: NCI in vitro cytotoxicity, whole panel; details: Homo sapiens; for CC50: read-out: Log10 LC50 (converted)
[29] = test system: CCRF-CEM; experiment: NCI in vitro cytotoxicity (SRB, 48 h), Leukemia panel; details: Homo sapiens, 48 h exposure
[30] = test system: M14; experiment: NCI in vitro cytotoxicity (SRB, 48 h), Melanoma panel; details: Homo sapiens, 48 h exposure
[31] = test system: OVCAR-5; experiment: NCI in vitro cytotoxicity (SRB, 48 h), Ovarian panel; details: Homo sapiens; OVCAR-5, Ovarian; 48 h exposure
[32] = test system: NCI/ADR-RES; experiment: as above; details: Homo sapiens, 48 h exposure
[33] = Colon, average of six to eight cell lines, read-out: Log10 GI50 (converted)
[34] = Colon, average of six to eight cell lines
[35] = exposure period of at least 48 hrs, read-out: GI50, range over colon cell lines
[36] = Ovarian, average of six to eight cell lines, read-out: Log10 GI50 (converted)
[37] = Ovarian, average of six to eight cell lines
[38] = exposure period of at least 48 hrs, read-out: GI50, range over ovarian cell lines
[39] = Prostate cell, exposure period of at least 48 hrs, read-out: GI50, range over prostate cell lines
[40] = Prostate, average of the panel's cell lines, read-out: Log10 GI50 (converted)
[41] = Prostate, average of the panel's cell lines
[42] = HOP-92, Non-small cell lung, 48 h exposure
[43] = CNS cell, exposure period of at least 48 hrs, read-out: GI50, range over CNS cell lines
[44] = CNS, average of six to eight cell lines, read-out: Log10 GI50 (converted)
[45] = CNS, average of six to eight cell lines
[46] = Leukemia, average of six to eight cell lines, read-out: Log10 GI50 (converted)
[47] = Leukemia, average of six to eight cell lines
[48] = exposure period of at least 48 hrs, read-out: GI50, range over leukemia cell lines
[49] = Non-small-cell lung, average of six to eight cell lines, read-out: Log10 GI50 (converted)
[50] = Non-small-cell lung, average of six to eight cell lines
[51] = exposure period of at least 48 hrs, read-out: GI50, range over lung cell lines

## COc1cc(C(=O)/C=C/c2c(C(F)(F)F)nc3sccn23)cc(OC)c1OC [Compound 7f, (E)-3-(6-(trifluoromethyl)imidazo[2,1-b]thiazol-5-yl)-1-(3,4,5-trimethoxyphenyl)prop-2-en-1-one]
[1]
  GI50: 1.74 µM
[2]
  GI50: 0.54 µM
[2]; 48 h exposure
  GI50: 0.54 µM
[3]
  GI50: 1.83 µM
[4]; [33]
  GI50: 1.62 µM
[4]; [34]
  CC50: 8.51 µM
[4]; [35]
  GI50: 1.01 to 1.94 µM
[5]
  GI50: 1.47 µM
[6]; [36]
  GI50: 2.69 µM
[6]; [37]
  CC50: 57.5 µM
[6]; [38]
  GI50: 1.86 to 3.08 µM
[7]
  GI50: 1.89 µM
[8]
  GI50: 1.9 µM
[9]
  GI50: 1.55 µM
[10]
  GI50: 1.8 µM
[11]
  GI50: 1.59 µM
[12]
  GI50: 2.72 µM
[13]
  GI50: 3.05 µM
[14]
  GI50: 3.08 µM
[15]
  GI50: 2.58 µM
[16]; [39]
  GI50: 1.41 to 2.66 µM
[16]; [40]
  GI50: 1.95 µM
[16]; [41]
  LC50: 20 µM
[17]; [42]
  GI50: 7 µM
[18]
  GI50: 1.41 µM
[19]
  pIC50: 5.90
  GI50: 1.25 µM
[20]
  GI50: 2.92 µM
  pIC50: 5.53
[21]
  GI50: 1.67 µM
[22]
  GI50: 1.94 µM
[23]
  GI50: 1.82 µM
[24]; [43]
  GI50: 1.38 to 2.67 µM
[24]; [44]
  GI50: 1.91 µM
[24]; [45]
  CC50: 12.6 µM
[25]
  GI50: 2.26 µM
[26]
  GI50: 2.26 µM
[27]; [46]
  GI50: 1.29 µM
[27]; [47]
  CC50: ≥ 100 µM
[27]; [48]
  GI50: 0.54 to 1.92 µM
[28]; [49]
  GI50: 2.45 µM
[28]; [50]
  CC50: 26.9 µM
[28]; [51]
  GI50: 1.65 to 7 µM
[29]
  GI50: 1.24 µM

## COc1ccc(C(=O)/C=C/c2c(C(F)(F)F)nc3sccn23)cc1OC [Compound 8f, (E)-1-(3,4-dimethoxyphenyl)-3-(6-(trifluoromethyl)imidazo[2,1-b]thiazol-5-yl) prop-2-en-1-one]
[30]
  GI50: 2.67 µM
[1]
  GI50: 2.25 µM
[2]
  GI50: 0.49 µM
[2]; 48 h exposure
  GI50: 0.49 µM
[3]
  GI50: 1 µM
[4]; [33]
  GI50: 2.45 µM
[4]; [34]
  CC50: ≥ 100 µM
[4]; [35]
  GI50: 1.4 to 4.56 µM
[5]
  GI50: 1.97 µM
[6]; [36]
  GI50: 2.95 µM
[6]; [37]
  CC50: 100 µM
[6]; [38]
  GI50: 1.88 to 4.18 µM
[7]
  GI50: 7.58 µM
[8]
  GI50: 7.77 µM
[9]
  GI50: 2.36 µM
[31]
  GI50: 4.18 µM
[10]
  GI50: 2.54 µM
[11]
  GI50: 5.92 µM
[12]
  GI50: 4.43 µM
[13]
  GI50: 4.08 µM
[14]
  GI50: 2.4 µM
[15]
  GI50: 3.14 µM
[16]; [39]
  GI50: 1.64 to 5.39 µM
[16]; [40]
  GI50: 2.95 µM
[16]; [41]
  LC50: ≥ 100 µM
[17]; [42]
  GI50: 5.8 µM
[18]
  GI50: 1.64 µM
[19]
  pIC50: 6.12
  GI50: 0.76 µM
[20]
  GI50: 5.91 µM
  pIC50: 6.12
[21]
  GI50: 1.49 µM
[22]
  GI50: 4.56 µM
[23]
  GI50: 5.1 µM
[24]; [43]
  GI50: 1.87 to 6.87 µM
[24]; [44]
  GI50: 3.39 µM
[24]; [45]
  CC50: ≥ 100 µM
[25]
  GI50: 3.25 µM
[32]
  GI50: 1.88 µM
[26]
  GI50: 4.08 µM
[27]; [46]
  GI50: 1.48 µM
[27]; [47]
  CC50: ≥ 100 µM
[27]; [48]
  GI50: 0.49 to 2.33 µM
[28]; [49]
  GI50: 3.98 µM
[28]; [50]
  CC50: ≥ 100 µM
[28]; [51]
  GI50: 1.94 to 6.95 µM
[29]
  GI50: 2.33 µM

## COc1cc(C(=O)/C=C/c2c(-c3ccc(F)cc3)nc3sc(C)cn23)cc(OC)c1OC [Compound 19e, (E)-3-(6-(4-fluorophenyl)-2-methylimidazo[2,1-b]thiazol-5-yl)-1-(3,4,5-trimethoxyphenyl)prop-2-en-1-one]
[30]
  GI50: 5.12 µM
[1]
  GI50: 5.46 µM
[2]; 48 h exposure
  GI50: 0.8 µM
[3]
  GI50: 2.8 µM
[4]; [33]
  GI50: 5.01 µM
[4]; [34]
  CC50: ≥ 100 µM
[4]; [35]
  GI50: 2.92 to 9.93 µM
[5]
  GI50: 3.63 µM
[6]; [36]
  GI50: 6.76 µM
[6]; [37]
  CC50: 100 µM
[6]; [38]
  GI50: ≥ 2.28 µM
[8]
  GI50: 4.75 µM
[9]
  GI50: 6.23 µM
[31]
  GI50: > 100 µM
[10]
  GI50: 3.76 µM
[11]
  GI50: 2.69 µM
[12]
  GI50: 2.29 µM
[13]
  GI50: 2.28 µM
[14]
  GI50: 4.94 µM
[15]
  GI50: 2.33 µM
[16]; [39]
  GI50: 2.41 to 7.52 µM
[16]; [40]
  GI50: 4.27 µM
[16]; [41]
  LC50: ≥ 100 µM
[17]; [42]
  GI50: 0.15 µM
[17]; HOP-92, non-small cell lung
  GI50: 0.15 µM
[18]
  GI50: 7.52 µM
[19]
  GI50: 1.81 µM
[20]
  GI50: 5.38 µM
[21]
  GI50: 5.34 µM
[22]
  GI50: 4.94 µM
[23]
  GI50: 5.83 µM
[24]; [43]
  GI50: 2.33 to 87.8 µM
[24]; [44]
  GI50: 12.6 µM
[24]; [45]
  CC50: ≥ 100 µM
[25]
  GI50: 3.75 µM
[32]
  GI50: 2.63 µM
[26]
  GI50: 5.75 µM
[27]; [46]
  GI50: 2.69 µM
[27]; [47]
  CC50: ≥ 100 µM
[27]; [48]
  GI50: 0.8 to 7.19 µM
[28]; [49]
  GI50: 4.47 µM
[28]; [50]
  CC50: ≥ 100 µM
[28]; [51]
  GI50: 0.15 to 85.1 µM
[29]
  GI50: 7.19 µM

From patent publication US8916711B2, “Imidazothiazole-chalcone derivatives as potential anticancer agents and process for the preparation thereof” (Council of Scientific and Industrial Research, priority 2009, dated 2014)
